According to the CheMixHub viscosity set:

Assay: xn = mol fraction of the nth substance listed

CCC12CC3CC(CC(C3)C1)C2 + CCCCCCCCC
viscosity [mPa·s], 100 kPa
Conditions	x1 = 0.0998	x1 = 0.2013	x1 = 0.3004	x1 = 0.4014	x1 = 0.5002	x1 = 0.5999	x1 = 0.7002	x1 = 0.7995	x1 = 0.9008
293.15 K	1.043	1.335	1.642	1.902	2.234	2.701	3.287	4.086	5.133
298.15 K	0.972	1.243	1.492	1.728	2.019	2.384	2.881	3.537	4.44
303.15 K	0.921	1.141	1.369	1.577	1.836	2.144	2.581	3.158	3.898
308.15 K	0.836	1.053	1.261	1.448	1.684	1.957	2.34	2.833	3.47
313.15 K	0.786	0.985	1.166	1.334	1.547	1.792	2.128	2.556	3.114
318.15 K	0.729	0.901	1.073	1.232	1.416	1.644	1.94	2.32	2.815
323.15 K	0.696	0.85	1.006	1.144	1.317	1.515	1.782	2.115	2.547

O=C1CCCCC1 + CCCCCCCCC
viscosity [mPa·s], 101.33 kPa
Conditions	x1 = 0.0999	x1 = 0.1981	x1 = 0.3012	x1 = 0.4032	x1 = 0.4987	x1 = 0.6007	x1 = 0.6942	x1 = 0.7981	x1 = 0.9006
298.15 K	0.683	0.726	0.772	0.833	0.909	1.022	1.134	1.321	1.544
303.15 K	0.639	0.675	0.718	0.775	0.842	0.936	1.043	1.21	1.41
308.15 K	0.6	0.632	0.672	0.723	0.784	0.869	0.967	1.116	1.294

CC(C)CC(C)(C)C + CCCCCCCCCC
298.15 K, 101 kPa
Conditions	viscosity [mPa·s]
x1 = 0.08287	0.7981
x1 = 0.2249	0.7573
x1 = 0.3493	0.7059
x1 = 0.4309	0.6689
x1 = 0.5526	0.6214
x1 = 0.6412	0.5981
x1 = 0.735	0.5645
x1 = 0.8255	0.5303
x1 = 0.8936	0.512
x1 = 0.9357	0.4966

O=C1CCCCC1 + CCCCCCCCCC
viscosity [mPa·s], 101.33 kPa
Conditions	x1 = 0.1023	x1 = 0.2073	x1 = 0.3011	x1 = 0.4017	x1 = 0.5042	x1 = 0.6034	x1 = 0.703	x1 = 0.8	x1 = 0.9018
298.15 K	0.87	0.902	0.937	0.991	1.063	1.143	1.256	1.439	1.625
303.15 K	0.806	0.836	0.868	0.916	0.984	1.053	1.152	1.316	1.48
308.15 K	0.752	0.779	0.812	0.851	0.909	0.973	1.064	1.212	1.357

CCC12CC3CC(CC(C3)C1)C2 + CCCCCCCCCCC
viscosity [mPa·s], 100 kPa
Conditions	x1 = 0.1012	x1 = 0.2042	x1 = 0.3018	x1 = 0.4017	x1 = 0.5014	x1 = 0.6059	x1 = 0.7013	x1 = 0.8052	x1 = 0.8999
293.15 K	1.348	1.47	1.631	1.86	2.179	2.592	3.18	4.01	5.036
298.15 K	1.203	1.334	1.489	1.692	1.93	2.302	2.77	3.47	4.339
303.15 K	1.108	1.225	1.366	1.546	1.764	2.091	2.514	3.129	3.854
308.15 K	1.025	1.133	1.271	1.418	1.601	1.883	2.235	2.77	3.404
313.15 K	0.953	1.049	1.173	1.311	1.472	1.728	2.039	2.509	3.078
318.15 K	0.887	0.983	1.092	1.22	1.377	1.6	1.882	2.284	2.781
323.15 K	0.829	0.92	1.013	1.135	1.272	1.472	1.723	2.094	2.512

CC(C)CC(C)(C)C + CCCCCCCCCCCC
viscosity [mPa·s]
Conditions	298.15 K	323.14 K
100 kPa, x1 = 0.5	0.8601	0.6179
101 kPa, x1 = 0.0923	1.236	–
101 kPa, x1 = 0.1569	1.169	–
101 kPa, x1 = 0.2503	1.085	–
101 kPa, x1 = 0.3747	0.9632	–
101 kPa, x1 = 0.4786	0.8653	–
101 kPa, x1 = 0.5889	0.7696	–
101 kPa, x1 = 0.6762	0.7013	–
101 kPa, x1 = 0.7597	0.6346	–
101 kPa, x1 = 0.8459	0.5724	–
101 kPa, x1 = 0.9062	0.5377	–
101 kPa, x1 = 0.9457	0.5099	–
101 kPa, x1 = 0.9733	0.4948	–

CCCCCCO + CCCCCCCCCCCC
298.15 K, 101 kPa
Conditions	viscosity [mPa·s]
x2 = 0.0555	3.93
x2 = 0.0999	3.52
x2 = 0.1555	3.06
x2 = 0.1999	2.74
x2 = 0.2554	2.38
x2 = 0.2999	2.12
x2 = 0.3555	1.85
x2 = 0.3998	1.66
x2 = 0.4555	1.47
x2 = 0.4999	1.34
x2 = 0.5554	1.21
x2 = 0.5998	1.14
x2 = 0.6554	1.07
x2 = 0.6999	1.04
x2 = 0.7555	1.02
x2 = 0.7997	1.03
x2 = 0.8555	1.06
x2 = 0.8998	1.09
x2 = 0.9555	1.15

O=C1CCCCC1 + CCCCCCCCCCCC
viscosity [mPa·s], 101.33 kPa
Conditions	x1 = 0.1085	x1 = 0.1979	x1 = 0.3049	x1 = 0.4052	x1 = 0.5049	x1 = 0.6012	x1 = 0.7012	x1 = 0.8014	x1 = 0.9008
298.15 K	1.348	1.352	1.368	1.393	1.42	1.474	1.533	1.614	1.75
303.15 K	1.237	1.238	1.252	1.272	1.302	1.344	1.398	1.469	1.623
308.15 K	1.135	1.139	1.151	1.171	1.199	1.232	1.281	1.349	1.483

CC(=O)CC(C)C + CCCCCCCCCCO
viscosity [mPa·s], 100 kPa
Conditions	x1 = 0.0846	x1 = 0.1569	x1 = 0.2402	x1 = 0.3455	x1 = 0.4437	x1 = 0.5617	x1 = 0.6591	x1 = 0.7447	x1 = 0.8561	x1 = 0.9486
293.15 K	12.8	11.5	10.21	8.72	7.39	5.89	4.69	3.64	2.29	1.18
303.15 K	8.66	7.8	6.94	5.94	5.05	4.05	3.24	2.55	1.65	0.92
313.15 K	6.09	5.5	4.91	4.21	3.59	2.9	2.34	1.85	1.23	0.74
323.15 K	4.44	4.02	3.58	3.08	2.64	2.15	1.75	1.4	0.96	0.61

CC(=O)CC(C)C + CCCCCCCCCO
viscosity [mPa·s], 100 kPa
Conditions	x1 = 0.0834	x1 = 0.1721	x1 = 0.2398	x1 = 0.3469	x1 = 0.4365	x1 = 0.5577	x1 = 0.6608	x1 = 0.7339	x1 = 0.8594	x1 = 0.9502
293.15 K	9.91	8.52	7.62	6.42	5.48	4.28	3.31	2.64	1.6	0.93
303.15 K	6.85	5.94	5.34	4.49	3.86	3.05	2.42	1.99	1.27	0.78
313.15 K	4.92	4.29	3.87	3.27	2.82	2.27	1.82	1.51	1	0.65
323.15 K	3.63	3.18	2.88	2.45	2.13	1.73	1.4	1.18	0.81	0.55
